Results on 13 molecules are retold here after US20100190768A1, “NOVEL FUSED PYROLE DERIVATIVE” (Dainippon Sumitomo Pharma Co., Ltd., priority 2005, published 2010).

In one experiment the test system is H4-III-E cells. The experiment can be described thus: TAT (tyrosine aminotransferase) assay. Type of experiment: cell-based. As to conditions: for Agonistic activity of 10 μM test compound / activation at 10 µM: 10 μM test compound alone, relative to maximum Dex-induced TAT activity (100%); for Antagonistic activity of 10 μM test compound: 10 μM test compound together with 0.005 μM dexamethasone, inhibitory ratio against TAT activity increase by Dex; for activation at 10 µM: read-out: Agonistic activity of 10 μM test compound. The method, then: H4-III-E cells, which had been continuously cultured in α-MEM medium A (supplemented with 10% inactivated FBS, 50 μM 2-mercapto-ethanol), were suspended in α-MEM medium A or α-MEM medium B (supplemented with 10% inactivated FBS, 50 μM 2-mercapto-ethanol, but without phenol red), and the cell suspension was seeded to a 96-well plate in an amount of 2×10^4 cells/100 μl/well, and the cells were cultured overnight. The supernatant in the medium was removed, and a test compound (100 μl, diluted with α-MEM medium A or α-MEM medium B) was added, and the cells were further cultured overnight. In order to measure the agonistic activity, a test compound was added alone, while in order to measure the antagonistic activity, a test compound was added simultaneously together with 0.005 μM dexamethasone and evaluated the extent of the inhibitory effect of said test compound against the TAT activity-inducing activity by dexamethasone.
The culture supernatant in the plate was removed by suction, and a cell lysate (20 μL; 1% NP-40, 0.2% Triton X-100, 0.25% DOC, 0.1% SDS, 1 mM EGTA, 150 mM NaCl, Tris (pH7.4), Protease inhibitor cocktail [2.5 mg/ml aprotinin, 2.5 mg/ml leupeptin, 2.5 mg/ml soybean trypsin inhibitor]) was added, and further thereto was added a TAT reaction reagent (150 μL; 10 N KOH, 0.125 M KH2PO4, 0.5 M α-ketoglutarate, 5 mM Pyridoxal-5′ phosphate, L-tyrosine), and the mixture was reacted at 37° C. for 15 minutes. Further, a 10N KOH (20 μL) was added thereto, and the mixture was reacted at 37° C. for 30 minutes, and the absorbance at 331 nm was measured by a microplate reader (SPECTRA MAX 250).
From the mean absorbance in the wells to which a test compound was added, the mean absorbance in the wells to which a compound and a TAT reaction solution were not added was subtracted.
Agonistic activity (%)=100×[(absorbance of the drug-treated group)−(absorbance of the group without TAT reaction reagent)]/[(absorbance of Dex-treated group)−(absorbance of the group without TAT reaction reagent)]
On the other hand, the antagonistic activity was calculated as follows.
Antagonistic activity (%)=Inhibitory ratio (%) against TAT activity increase by Dex=100−100×[(absorbance of the drug-treated group)−(absorbance of the group without a drug)]/[(absorbance of Dex-treated group)−(absorbance of the group without a drug)]
With regard to the agonistic activity and the antagonistic activity, the results of 10% or more were expressed as O, while the results of less than 10% were expressed as X.

The target of a further experiment is T1, human GRα protein (Homo sapiens, UniProt P04150).
T1 construct: made in house; host or cells: insect cells infected with baculovirus; cytoplasm fraction used
T1 sequence (P04150 1-777): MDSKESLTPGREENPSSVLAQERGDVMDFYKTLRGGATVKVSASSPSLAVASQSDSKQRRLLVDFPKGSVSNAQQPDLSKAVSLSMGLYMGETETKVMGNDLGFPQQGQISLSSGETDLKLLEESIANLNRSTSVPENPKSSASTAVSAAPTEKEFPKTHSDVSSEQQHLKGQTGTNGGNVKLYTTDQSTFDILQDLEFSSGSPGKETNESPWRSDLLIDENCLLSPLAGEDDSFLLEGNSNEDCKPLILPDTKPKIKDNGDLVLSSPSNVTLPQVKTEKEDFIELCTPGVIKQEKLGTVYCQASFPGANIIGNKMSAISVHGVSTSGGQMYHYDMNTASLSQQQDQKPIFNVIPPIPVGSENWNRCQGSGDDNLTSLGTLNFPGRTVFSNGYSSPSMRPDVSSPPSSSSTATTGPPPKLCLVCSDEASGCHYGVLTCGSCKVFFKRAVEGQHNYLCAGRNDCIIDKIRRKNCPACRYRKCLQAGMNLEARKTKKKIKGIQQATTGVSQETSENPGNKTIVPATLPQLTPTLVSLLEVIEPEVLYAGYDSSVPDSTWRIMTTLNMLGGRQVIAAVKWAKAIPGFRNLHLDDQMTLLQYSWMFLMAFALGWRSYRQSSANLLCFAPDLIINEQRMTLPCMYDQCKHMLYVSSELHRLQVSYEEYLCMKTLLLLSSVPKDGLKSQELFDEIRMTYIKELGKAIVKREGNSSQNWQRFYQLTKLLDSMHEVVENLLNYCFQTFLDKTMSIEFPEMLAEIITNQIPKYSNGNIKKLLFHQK
The experiment can be described thus: Binding inhibitory assay (displacement of 3H-dexamethasone from the cytoplasm fraction of baculovirus-infected insect cells). As to conditions: 100 nM test compound; 3H-Dex; NSB with 10 μM dexamethasone; read-out: Binding Inhibitory ratio (%) of 100 nM of test compound. The method, then:
Insect cells, which had been infected with baculovirus for expressing human GRα protein, were suspended in an approximately equal volume of a binding buffer (10 mM Tris-Cl, 1.5 mM EDTA, 10% glycerol, 5 mM DTT, 20 mM sodium molybdate, pH 7.6). The mixture was rapidly frozen with liquid nitrogen, and then melted at room temperature. This cycle was repeated totally twice in order to break the cell membrane. The mixture was ultracentrifuged under 100,000 g at 4° C. for one hour to give the supernatant, which was the cytoplasm fraction containing human GRα protein.
A polypropylene 96-well plate (manufactured by Costar Corporation, etc.) was placed on ice, and DMSO or a test compound (each 1 μl) was put into each well. A 10 nM ^3H-Dex solution (50 μl; tritiated dexamethasone; manufactured by Amersham) in the binding buffer, and a GR protein solution, i.e., a solution by diluting the above cytoplasm fraction with the binding buffer (50 μl) were added to each well, and the plate was lightly shaken with a plate mixer, and then left to stand at 4° C. for 16 to 20 hours (the final concentration of DMSO: 1%).
A 5% solution of dextran-coated active carbon (manufactured by Sigma) suspended in the binding buffer (50 μl) was put into each well, and the plate was lightly shaken with a plate mixer for 30 seconds. Then, the plate was centrifuged at 2500 rpm at 4° C. for 5 minutes, and the ^3H count in the supernatant (50 μl) was measured by a TopCount (manufactured by Perkin-Elmer Corporation). Each test compound was tested twice.
The binding activity was calculated as follows. The mean ^3H count in the presence of dexamethason (Dex) 10 μM was considered as NSB (non-specific binding), and the binding inhibitory ratio in each well was calculated by the following equation.
Binding Inhibitory Ratio (%)=100×{1−(cpm value of each well−NSB)/(mean cpm value of DMSO-well−NSB)}
(cpm means count per minute)
The mean binding inhibitory ratio of each well was calculated by the above equation to give a binding inhibitory ratio of each test compound.

Molecules are shown by their SMILES. Where only a bound is given, the exact number is not on record here.

Take `O=[N+]([O-])c1ccc2c(C(O)(CN3CCS(=O)(=O)CC3)C(F)(F)F)cn(Cc3ccccc3)c2c1` (stereo not drawn) [Example 120, 2-(1-Benzyl-6-nitro-1H-indol-3-yl)-3-(1,1-dioxidothiomorpholin-4-yl)-1,1,1-trifluoropropan-2-ol]: in the experiment with H4-III-E cells, the “Agonistic activity of 10 μM test compound” value is “◯” and the “Antagonistic activity of 10 μM test compound” value (from here on “Antagonistic activity”) was “◯”. The inhibition at 0.1 µM on human GRα protein turned out to be 97%.

Consider `O=C(c1cccnc1)C1CCN(CC(O)(c2cn(Cc3ccccc3)c3cc([N+](=O)[O-])ccc23)C(F)(F)F)CC1` (stereo not drawn) [Example 197, {1-[2-(1-Benzyl-6-nitro-1H-indol-3-yl)-3,3,3-trifluoro-2-hydroxypropyl]piperidin-4-yl}(pyridin-3-yl)methanone], for which, in the experiment on H4-III-E cells, the “Agonistic activity of 10 μM test compound” value is given as “◯” and the “Antagonistic activity” value is given as “◯”. At human GRα protein, the inhibition at 0.1 µM was found to be 94%.

For the molecule `O=[N+]([O-])c1ccc2c(C(O)(CN3CCC4(CC3)CNc3ccccc3O4)C(F)(F)F)cn(Cc3ccccc3)c2c1` (stereo not drawn) [Example 128, 2-(1-Benzyl-6-nitro-1H-indol-3-yl)-3-(3,4-dihydro-1′H-spiro[1,4-benzoxazine-2,4′-piperidin]-1′-yl)-1,1,1-trifluoropropan-2-ol], the activation at 10 µM with H4-III-E cells was below 10%. The inhibition at 0.1 µM on human GRα protein was found to be 64%.

Turning to `CN1CCCN(C(=O)c2ccc(OC3CCN(CC(O)(c4cn(Cc5ccccc5)c5cc([N+](=O)[O-])ccc45)C(F)(F)F)CC3)cc2)CC1` (stereo not drawn) [Example 203, 2-(1-Benzyl-6-nitro-1H-indol-3-yl)-1,1,1-trifluoro-3-(4-{4-[(4-methyl-1,4-diazepan-1-yl)carbonyl]phenoxy}piperidin-1-yl)propan-2-ol], in the experiment with H4-III-E cells, the “Agonistic activity of 10 μM test compound” value is “◯” and the “Antagonistic activity” value is given as “◯”. For the same molecule, the inhibition at 0.1 µM on human GRα protein turned out to be 94%.

As to `COc1ccc(C(=O)C2CCN(CC(O)(c3cn(Cc4ccccc4)c4cc([N+](=O)[O-])ccc34)C(F)(F)F)CC2)cc1` (stereo not drawn) [Example 73, {1-[2-(1-Benzyl-6-nitro-1H-indol-3-yl)-3,3,3-trifluoro-2-hydroxypropyl]piperidin-4-yl}(4-methoxyphenyl)methanone], in the experiment on H4-III-E cells, the “Agonistic activity of 10 μM test compound” value is given as “◯” and the “Antagonistic activity” value is on record as “◯”. On human GRα protein, the inhibition at 0.1 µM came to 95%.

Consider `O=C(O)CCc1ccc(OC2CCN(CC(O)(c3cn(Cc4ccccc4)c4cc([N+](=O)[O-])ccc34)C(F)(F)F)CC2)cc1` (stereo not drawn) [Example 182, 3-[4-({1-[2-(1-Benzyl-6-nitro-1H-indol-3-yl)-3,3,3-trifluoro-2-hydroxypropyl]-piperidin-4-yl}oxy)phenyl]propanoic acid], for which, in the experiment with H4-III-E cells, the “Agonistic activity of 10 μM test compound” value was “◯” and the “Antagonistic activity” value is given as “◯”. For the same molecule, at human GRα protein, the inhibition at 0.1 µM is 99%.

`O=[N+]([O-])c1ccc2c(C(O)(CNCCc3ccccc3)C(F)(F)F)cn(Cc3ccccc3)c2c1` (stereo not drawn) [Example 157, 2-(1-Benzyl-6-nitro-1H-indol-3-yl)-1,1,1-trifluoro-3-[(2-phenylethyl)amino]-propan-2-ol]: the inhibition at 0.1 µM at human GRα protein turned out to be 50%.

Turning to `O=[N+]([O-])c1ccc2c(C(O)(Cn3ccnc3)C(F)(F)F)cn(Cc3ccccc3)c2c1` (stereo not drawn) [Example 158, 2-(1-Benzyl-6-nitro-1H-indol-3-yl)-1,1,1-trifluoro-3-(1H-imidazol-1-yl)propan-2-ol], in the experiment with H4-III-E cells, the activation at 10 µM was below 10% and the “Antagonistic activity” value was “◯”. The inhibition at 0.1 µM on human GRα protein amounted to 96%.

Take `O=[N+]([O-])c1ccc2c(C(O)(CN3CCC(S(=O)(=O)c4ccccc4)CC3)C(F)(F)F)cn(Cc3ccccc3)c2c1` (stereo not drawn) [Example 184, 2-(1-Benzyl-6-nitro-1H-indol-3-yl)-1,1,1-trifluoro-3-[4-(phenylsulfonyl)piperidin-1-yl]propan-2-ol]: in the experiment on H4-III-E cells, the “Agonistic activity of 10 μM test compound” value was “◯” and the “Antagonistic activity” value is “X (the results of less than 10% were expressed as X)”. Further, the inhibition at 0.1 µM on human GRα protein was 97%.

Turning to `O=[N+]([O-])c1ccc2c(C(O)(CN3CCC(O)(Cc4ccccc4)CC3)C(F)(F)F)cn(Cc3ccccc3)c2c1` (stereo not drawn) [Example 76, 4-Benzyl-1-[2-(1-benzyl-6-nitro-1H-indol-3-yl)-3,3,3-trifluoro-2-hydroxypropyl]-piperidin-4-ol], in the experiment with H4-III-E cells, the activation at 10 µM was below 10% and the “Antagonistic activity” value is on record as “◯”. In addition, on human GRα protein, the inhibition at 0.1 µM amounted to 60%.

For `O=C(N1CCOCC1)C(O)(c1cn(Cc2ccccc2)c2ccccc12)C(F)(F)F` (stereo not drawn) [Example 152, 2-(1-Benzyl-1H-indol-3-yl)-1,1,1-trifluoro-3-morpholin-4-yl-3-oxopropan-2-ol], the activation at 10 µM in the experiment on H4-III-E cells was below 10%. Besides, the inhibition at 0.1 µM on human GRα protein amounted to 50%.

For `CC(C)(C)OC(=O)N1CCN(CC(O)(c2cn(Cc3ccccc3)c3cc([N+](=O)[O-])ccc23)C(F)(F)F)CC1` (stereo not drawn) [Example 100, tert-Butyl 4-[2-(1-benzyl-6-nitro-1H-indol-3-yl)-3,3,3-trifluoro-2-hydroxypropyl]-piperazine-1-carboxylate], in the experiment with H4-III-E cells, the “Agonistic activity of 10 μM test compound” value is recorded as “◯” and the “Antagonistic activity” value was “◯”. Also, on human GRα protein, the inhibition at 0.1 µM amounted to 101%.

Turning to `CCOC(=O)CCc1ccc(C(=O)C2CCN(CC(O)(c3cn(Cc4ccccc4)c4cc([N+](=O)[O-])ccc34)C(F)(F)F)CC2)cc1` (stereo not drawn) [Example 229, Ethyl 3-[4-({1-[2-(1-benzyl-6-nitro-1H-indol-3-yl)-3,3,3-trifluoro-2-hydroxypropyl]piperidin-4-yl}carbonyl)phenyl]propanoate], on human GRα protein, the inhibition at 0.1 µM worked out at 74%.
